# Assay results from patent US6518253B1, “Treatment of viral infections using the L-isomer of ribavirin” (priority 1999, dated 2003).
# Where two headings read alike, the source gives them in different places.
# How the values were obtained:
# [1] = Cytotoxicity assay, influenza B test; type: cell-based; settings: cells infected with Influenza B (cell line not given); cells of the Influenza B test; read-out: Cytotoxicity (CC50) INFL.B
# Procedure: (§1) In vitro testing for direct antiviral activity of Levovirin™ and Ribavirin against influenza A and B, parainfluenza 1 and 2, and respiratory syncytial virus were performed as described in Huffinan, J. H. et al. Antiviral Chem. and Chemother. 1997, 8: 75-83 and Barnard, D. L. et al. Antiviral Chem. and Chemother 1997, 8: 223-233. Anti-human immunodeficiency virus activity was assessed by the National Cancer Institute using a procedure designed to detect agents acting at any stage of the virus reproductive cycle [Weislow, O. W. et al., J. Natl. Cancer Inst. 1989, 81: 577-586]. Anti-hepatitis B (HBV) activity was monitored by using an assay as described by Marion et al., Hepatology 1987, 7: 724-731. Anti-HIV activity and cytotoxicity for Ribavirin was determined from previous data [McCormick, J. B., Lancet, 1998, II: 1367-1369.
# [2] = test system: Concanavalin A Induced Hepatitis; assay: Concanavalin A induced hepatitis, serum ALT; settings: BALB/c mice, single i.p. dose 20 μg (1 mg/kg) 1 hr prior to i.v. 0.3 mg Con A; serum after 24 hr; PBS control about 1900 U/ml
# [3] = rat, in vivo, po, 180 mg/kg
# [4] = test system: SEB stimulated T cell expression of the TH1 cytokines IL-2, IFN-γ, and TNF-α; type: cell-based, human
# [5] = Cytotoxicity assay, influenza A test; type: cell-based; settings: cells infected with Influenza A (cell line not given); cells of the Influenza A test; read-out: Cytotoxicity (CC50) INFL.A
# Procedure: as §1
# Influenza (INFL) B = assay: microbe, parasite or virus in culture; type: cell-based; settings: read-out: Dir.Antiviral activity (EC50) INFL.B
# [6] = test system: cells infected with Parainfluenza 1
# [7] = test system: cells infected with Influenza B; assay: Cytotoxicity assay, influenza B test; type: cell-based; settings: cells of the Influenza B test; read-out: Cytotoxicity (CC50) INFL.B
# Procedure: as §1
# Parainfluenza (PARA) 3 = type: cell-based, Parainfluenza 3; settings: read-out: Dir.Antiviral activity (EC50) PARA 3
# cells infected with HIV = settings: cells of the HIV test; Ribavirin value from previous data (McCormick, Lancet); read-out: Cytotoxicity (CC50) HIV; cited from earlier work
# [8] = test system: cells infected with Parainfluenza 3
# [9] = test system: cells infected with Influenza A; assay: Cytotoxicity assay, influenza A test; type: cell-based; settings: cells of the Influenza A test; read-out: Cytotoxicity (CC50) INFL.A
# Procedure: as §1
# [10] = Four-week oral toxicity in rats; settings: oral administration, 180 mg/kg over four weeks
# [11] = test system: respiratory syncytial virus (RSV); type: cell-based; settings: read-out: Dir.Antiviral activity (EC50) RSV
# Influenza (INFL) A = type: cell-based; settings: read-out: Dir.Antiviral activity (EC50) INFL.A
# Parainfluenza (PARA) 1 = type: cell-based, Parainfluenza 1; settings: read-out: Dir.Antiviral activity (EC50) PARA 1
# Hepatitis B (HBV) = type: cell-based; settings: read-out: Dir.Antiviral activity (EC50) HBV
molecule,measurement,setting,value
"NC(=O)c1ncn([C@H]2O[C@@H](CO)[C@H](O)[C@@H]2O)n1 [Levovirin™, 1-(β-L-ribofuranosyl)-1,2,4-triazole-3-carboxamide]",CC50,[1],> 200 µM
same,Con A induced serum ALT level,[2],954 U/ml
same,"Clinical pathology (hemolytic anemia, leukopenia)",[3],did not produce any observable clinical pathology
same,"IFN-γ, mean percentage of activated control",[4],122 ± 3 percentage of activated control
same,"IL-2, mean percentage of activated control",[4],131 ± 12 percentage of activated control
same,"TNF-α, mean percentage of activated control",[4],144 ± 7 percentage of activated control
same,CC50,[5],> 200 µM
same,EC50,Influenza (INFL) B; Influenza B virus,> 200 µM
"1-(5-Deoxy-β-D-ribo-furanosyl)-1,2,4-triazole-3-carboxamide [Ribavirin]",CC50,[6],> 1000 µM
same,CC50,[7],> 100 µM
same,Con A induced serum ALT level,[2],969 U/ml
same,CC50,cells infected with HBV,53 µM
same,EC50,Parainfluenza (PARA) 3,4 µM
same,"IFN-γ, mean percentage of activated control",[4],131 ± 6 percentage of activated control
same,"IL-2, mean percentage of activated control",[4],143 ± 18 percentage of activated control
same,"TNF-α, mean percentage of activated control",[4],124 ± 4 percentage of activated control
same,CC50,cells infected with HIV,> 40 µM
same,CC50,[8],480 µM
same,CC50,[9],56 µM
same,"Clinical pathology (hemolytic anemia, leukopenia)",[10],produced significant hemolytic anemia and leukopenia
same,EC50,[11],5 µM
same,EC50,Influenza (INFL) A,6.1 µM
same,CC50,cells infected with RSV,100 µM
same,EC50,Influenza (INFL) B; Influenza B,1.9 µM
same,EC50,Parainfluenza (PARA) 1,40 µM
same,EC50,Hepatitis B (HBV),> 100 µM
